The target of experiment [1] is RAC-alpha serine/threonine-protein kinase (Homo sapiens, UniProt P31749).
Experiment [2] deals with RAC-gamma serine/threonine-protein kinase (Homo sapiens, UniProt Q9Y243).
The target in experiment [3] is BMP-2-inducible protein kinase (Homo sapiens, UniProt Q9NSY1).
Experiment [4] deals with Calcium/calmodulin-dependent protein kinase type II subunit delta (Homo sapiens, UniProt Q13557).
The target in experiment [5] is Ephrin type-A receptor 5 (Homo sapiens, UniProt P54756).
Experiment [6] has as its target Insulin receptor (Homo sapiens, UniProt P06213).
Experiment [7] has as its target Mitogen-activated protein kinase kinase kinase 1 (Homo sapiens, UniProt Q13233).
Experiment [8] deals with Myosin light chain kinase, smooth muscle (Homo sapiens, UniProt Q15746).
Experiment [9] concerns the target NADH dehydrogenase [ubiquinone] 1 alpha subcomplex subunit 13 (Homo sapiens, UniProt Q9P0J0).
Experiment [10] deals with T1, Exosome RNA helicase MTR4 (Homo sapiens, UniProt P42285).
T1 sequence (P42285 whole entry): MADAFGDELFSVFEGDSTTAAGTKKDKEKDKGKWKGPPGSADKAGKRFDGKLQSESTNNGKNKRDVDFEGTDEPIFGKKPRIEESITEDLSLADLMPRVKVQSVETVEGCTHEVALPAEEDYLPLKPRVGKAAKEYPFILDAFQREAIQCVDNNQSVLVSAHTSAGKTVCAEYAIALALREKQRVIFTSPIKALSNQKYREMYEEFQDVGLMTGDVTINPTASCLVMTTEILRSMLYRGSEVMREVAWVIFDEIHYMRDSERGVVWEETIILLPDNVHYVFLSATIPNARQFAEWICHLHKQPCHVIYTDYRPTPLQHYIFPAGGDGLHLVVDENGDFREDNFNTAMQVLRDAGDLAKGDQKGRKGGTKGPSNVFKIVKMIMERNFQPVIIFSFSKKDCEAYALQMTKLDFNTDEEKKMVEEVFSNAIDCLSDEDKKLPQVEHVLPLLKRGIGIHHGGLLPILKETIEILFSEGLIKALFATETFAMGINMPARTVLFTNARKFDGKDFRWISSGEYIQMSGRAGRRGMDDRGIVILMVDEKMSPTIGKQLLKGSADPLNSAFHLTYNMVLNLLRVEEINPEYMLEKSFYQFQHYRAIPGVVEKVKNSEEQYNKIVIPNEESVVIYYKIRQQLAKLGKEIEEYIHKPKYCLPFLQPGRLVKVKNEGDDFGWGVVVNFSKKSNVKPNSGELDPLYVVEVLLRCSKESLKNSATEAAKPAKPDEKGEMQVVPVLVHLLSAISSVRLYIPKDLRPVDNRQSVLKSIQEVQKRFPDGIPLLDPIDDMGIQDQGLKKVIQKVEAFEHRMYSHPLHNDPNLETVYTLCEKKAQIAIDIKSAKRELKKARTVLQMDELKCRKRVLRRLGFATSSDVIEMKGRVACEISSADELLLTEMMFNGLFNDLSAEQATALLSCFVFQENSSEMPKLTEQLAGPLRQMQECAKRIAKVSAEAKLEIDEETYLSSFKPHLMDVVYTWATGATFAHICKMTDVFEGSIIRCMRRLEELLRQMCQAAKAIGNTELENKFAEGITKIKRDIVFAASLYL

Experiment [11] concerns the target STE20-like serine/threonine-protein kinase (Homo sapiens, UniProt Q9H2G2).
Experiment [12] has as its target Tyrosine-protein kinase ABL1 (Homo sapiens, UniProt P00519).
The target of experiment [13] is Cyclin-dependent kinase 5 (Homo sapiens, UniProt Q00535).
Experiment [14] deals with Dual specificity mitogen-activated protein kinase kinase 2 (Homo sapiens, UniProt P36507).

The record followed here is ChEMBL document CHEMBL3991601, “The target landscape of clinical kinase drugs” (Science, 2017).

SMILES strings stand for the structures. The source made the active and inactive calls. Rule as the data show it, for most assays here: actives have a measured Kd and inactives only a lower limit. Bounds are passed on as bounds.
Also: in the data inactive means no Kd found up to 30 µM.

Sequence of Calcium/calmodulin-dependent protein kinase type II subunit delta (Q13557 whole entry): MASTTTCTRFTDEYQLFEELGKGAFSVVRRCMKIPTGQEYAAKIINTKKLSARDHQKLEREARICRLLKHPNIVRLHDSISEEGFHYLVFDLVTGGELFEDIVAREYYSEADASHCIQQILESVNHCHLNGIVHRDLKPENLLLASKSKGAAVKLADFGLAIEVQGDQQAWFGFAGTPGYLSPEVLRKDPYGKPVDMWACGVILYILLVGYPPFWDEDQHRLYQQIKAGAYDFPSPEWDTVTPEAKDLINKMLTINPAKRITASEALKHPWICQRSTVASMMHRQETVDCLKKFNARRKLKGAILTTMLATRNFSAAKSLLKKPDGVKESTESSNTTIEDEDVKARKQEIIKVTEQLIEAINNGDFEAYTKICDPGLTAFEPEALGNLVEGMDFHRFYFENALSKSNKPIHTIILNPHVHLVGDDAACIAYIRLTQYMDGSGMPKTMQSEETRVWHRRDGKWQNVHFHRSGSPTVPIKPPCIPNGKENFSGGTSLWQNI
Sequence of Insulin receptor (P06213 28-758 limits assumed): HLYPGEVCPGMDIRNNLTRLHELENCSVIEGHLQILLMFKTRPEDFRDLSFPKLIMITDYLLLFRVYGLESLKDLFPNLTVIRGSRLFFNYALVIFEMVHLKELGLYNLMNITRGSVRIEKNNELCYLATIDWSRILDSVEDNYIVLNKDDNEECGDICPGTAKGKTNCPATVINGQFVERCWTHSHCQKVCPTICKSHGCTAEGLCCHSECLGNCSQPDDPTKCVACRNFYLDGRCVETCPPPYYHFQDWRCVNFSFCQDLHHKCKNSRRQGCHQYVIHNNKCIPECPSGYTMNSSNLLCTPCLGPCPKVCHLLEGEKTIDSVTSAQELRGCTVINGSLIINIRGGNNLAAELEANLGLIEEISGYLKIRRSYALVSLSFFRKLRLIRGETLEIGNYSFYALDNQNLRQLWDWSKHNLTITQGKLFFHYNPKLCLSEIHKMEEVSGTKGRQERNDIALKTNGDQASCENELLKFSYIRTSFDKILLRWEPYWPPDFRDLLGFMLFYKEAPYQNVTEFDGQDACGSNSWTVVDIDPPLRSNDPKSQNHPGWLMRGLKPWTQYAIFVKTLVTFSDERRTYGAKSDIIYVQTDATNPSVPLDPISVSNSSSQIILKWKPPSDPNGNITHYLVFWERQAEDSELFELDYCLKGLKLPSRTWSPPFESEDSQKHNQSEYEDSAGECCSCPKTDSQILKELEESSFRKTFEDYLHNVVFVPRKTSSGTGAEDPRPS
Sequence of Insulin receptor (P06213 763-1382 limits assumed): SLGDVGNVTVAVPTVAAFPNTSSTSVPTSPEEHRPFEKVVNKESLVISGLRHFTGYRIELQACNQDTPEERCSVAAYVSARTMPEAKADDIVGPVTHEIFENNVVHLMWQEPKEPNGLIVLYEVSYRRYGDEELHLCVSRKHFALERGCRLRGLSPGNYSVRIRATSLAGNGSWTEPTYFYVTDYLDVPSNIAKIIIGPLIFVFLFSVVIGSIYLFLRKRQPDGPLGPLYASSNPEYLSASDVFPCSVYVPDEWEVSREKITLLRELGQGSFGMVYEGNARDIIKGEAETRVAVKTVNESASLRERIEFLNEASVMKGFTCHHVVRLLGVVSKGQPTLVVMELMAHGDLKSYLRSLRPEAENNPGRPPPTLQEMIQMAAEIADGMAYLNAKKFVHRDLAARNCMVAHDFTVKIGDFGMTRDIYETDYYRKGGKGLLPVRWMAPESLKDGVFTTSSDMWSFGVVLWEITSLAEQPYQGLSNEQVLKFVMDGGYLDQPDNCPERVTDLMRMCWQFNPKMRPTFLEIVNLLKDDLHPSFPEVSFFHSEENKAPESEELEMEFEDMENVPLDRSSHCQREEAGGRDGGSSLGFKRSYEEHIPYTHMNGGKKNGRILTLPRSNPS
Sequence of RAC-alpha serine/threonine-protein kinase (P31749 whole entry): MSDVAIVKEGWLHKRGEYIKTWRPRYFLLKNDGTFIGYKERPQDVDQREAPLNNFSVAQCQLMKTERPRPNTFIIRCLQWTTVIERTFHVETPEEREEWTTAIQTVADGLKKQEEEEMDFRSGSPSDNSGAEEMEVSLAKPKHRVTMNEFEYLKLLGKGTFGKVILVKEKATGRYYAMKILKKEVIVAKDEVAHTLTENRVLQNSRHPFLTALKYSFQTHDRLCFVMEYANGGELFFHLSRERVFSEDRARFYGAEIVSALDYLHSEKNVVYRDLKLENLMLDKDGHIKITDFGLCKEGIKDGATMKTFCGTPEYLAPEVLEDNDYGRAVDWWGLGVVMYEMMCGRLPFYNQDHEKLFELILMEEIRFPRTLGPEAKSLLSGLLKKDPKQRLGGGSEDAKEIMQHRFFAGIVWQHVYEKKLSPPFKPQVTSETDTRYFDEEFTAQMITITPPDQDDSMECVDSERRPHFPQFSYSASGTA
Sequence of RAC-gamma serine/threonine-protein kinase (Q9Y243 whole entry): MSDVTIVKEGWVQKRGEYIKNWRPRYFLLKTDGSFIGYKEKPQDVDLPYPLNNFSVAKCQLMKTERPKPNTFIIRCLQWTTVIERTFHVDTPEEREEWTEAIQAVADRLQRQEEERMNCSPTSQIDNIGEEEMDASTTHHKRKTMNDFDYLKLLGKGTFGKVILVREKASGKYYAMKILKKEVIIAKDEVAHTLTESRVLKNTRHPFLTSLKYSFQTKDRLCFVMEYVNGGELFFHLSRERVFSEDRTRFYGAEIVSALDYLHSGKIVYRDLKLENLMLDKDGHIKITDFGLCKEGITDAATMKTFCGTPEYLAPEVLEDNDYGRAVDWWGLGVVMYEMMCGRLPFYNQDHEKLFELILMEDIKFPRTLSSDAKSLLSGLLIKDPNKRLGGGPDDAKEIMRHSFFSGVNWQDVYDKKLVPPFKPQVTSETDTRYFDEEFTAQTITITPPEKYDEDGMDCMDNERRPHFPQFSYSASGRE
Sequence of Mitogen-activated protein kinase kinase kinase 1 (Q13233 whole entry): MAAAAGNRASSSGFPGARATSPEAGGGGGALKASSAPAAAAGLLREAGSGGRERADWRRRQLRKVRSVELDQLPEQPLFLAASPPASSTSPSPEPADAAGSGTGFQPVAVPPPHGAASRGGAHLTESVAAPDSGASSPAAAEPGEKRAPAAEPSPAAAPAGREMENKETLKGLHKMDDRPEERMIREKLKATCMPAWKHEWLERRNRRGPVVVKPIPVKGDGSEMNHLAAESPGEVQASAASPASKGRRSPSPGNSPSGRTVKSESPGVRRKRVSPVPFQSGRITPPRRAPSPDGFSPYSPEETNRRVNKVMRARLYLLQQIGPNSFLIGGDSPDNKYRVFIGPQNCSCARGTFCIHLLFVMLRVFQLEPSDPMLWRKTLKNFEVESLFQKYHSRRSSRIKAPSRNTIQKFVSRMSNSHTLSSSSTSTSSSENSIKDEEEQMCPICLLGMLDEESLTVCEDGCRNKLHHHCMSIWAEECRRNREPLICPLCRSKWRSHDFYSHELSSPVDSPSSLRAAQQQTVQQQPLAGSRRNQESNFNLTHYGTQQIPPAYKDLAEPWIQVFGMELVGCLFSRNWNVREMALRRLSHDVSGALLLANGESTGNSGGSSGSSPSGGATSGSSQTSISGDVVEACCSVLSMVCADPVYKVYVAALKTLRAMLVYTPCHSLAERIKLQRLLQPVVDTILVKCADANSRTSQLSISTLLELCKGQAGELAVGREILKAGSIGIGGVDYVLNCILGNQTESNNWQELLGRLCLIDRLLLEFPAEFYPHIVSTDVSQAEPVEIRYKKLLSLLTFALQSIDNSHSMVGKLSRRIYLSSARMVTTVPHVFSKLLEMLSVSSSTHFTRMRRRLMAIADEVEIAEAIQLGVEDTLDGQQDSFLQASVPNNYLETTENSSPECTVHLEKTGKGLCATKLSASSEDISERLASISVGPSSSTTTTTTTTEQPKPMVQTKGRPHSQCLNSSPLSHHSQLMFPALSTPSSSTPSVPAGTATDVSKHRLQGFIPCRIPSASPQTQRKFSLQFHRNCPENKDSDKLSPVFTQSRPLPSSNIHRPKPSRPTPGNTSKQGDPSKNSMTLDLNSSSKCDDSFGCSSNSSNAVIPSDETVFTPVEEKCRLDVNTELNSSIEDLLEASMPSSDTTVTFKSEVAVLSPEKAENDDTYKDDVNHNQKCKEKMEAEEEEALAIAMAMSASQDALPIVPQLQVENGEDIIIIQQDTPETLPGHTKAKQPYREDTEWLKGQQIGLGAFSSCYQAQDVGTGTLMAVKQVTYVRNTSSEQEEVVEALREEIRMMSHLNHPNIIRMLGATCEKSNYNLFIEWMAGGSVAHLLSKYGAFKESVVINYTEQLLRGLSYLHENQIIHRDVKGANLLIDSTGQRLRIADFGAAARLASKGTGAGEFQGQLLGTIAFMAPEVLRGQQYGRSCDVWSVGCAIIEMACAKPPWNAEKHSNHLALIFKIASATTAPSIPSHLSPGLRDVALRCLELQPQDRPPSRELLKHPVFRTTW
Sequence of NADH dehydrogenase [ubiquinone] 1 alpha subcomplex subunit 13 (Q9P0J0 whole entry, one chain of several): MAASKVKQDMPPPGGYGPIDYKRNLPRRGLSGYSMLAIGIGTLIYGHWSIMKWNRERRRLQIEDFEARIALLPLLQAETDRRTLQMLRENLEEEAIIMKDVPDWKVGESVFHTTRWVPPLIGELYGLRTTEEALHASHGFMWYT
Sequence of Cyclin-dependent kinase 5 (Q00535 whole entry): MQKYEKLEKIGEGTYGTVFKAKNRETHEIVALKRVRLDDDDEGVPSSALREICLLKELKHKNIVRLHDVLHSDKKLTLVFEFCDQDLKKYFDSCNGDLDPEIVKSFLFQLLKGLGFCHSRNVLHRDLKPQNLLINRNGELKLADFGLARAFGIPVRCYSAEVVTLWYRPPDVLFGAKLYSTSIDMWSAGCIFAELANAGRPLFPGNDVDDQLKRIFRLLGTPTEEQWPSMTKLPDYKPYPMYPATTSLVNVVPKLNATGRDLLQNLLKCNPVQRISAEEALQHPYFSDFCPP

What is called Kd is the constant that tells how readily two partners part at equilibrium. As for `OCCn1cc(-c2cnc3nnn(Cc4ccc5ncccc5c4)c3n2)cn1` [PF-04217903], the Kd in experiment [1], in experiment [2], in experiment [3], in [4], in experiment [5] and in experiment [6] was > 30 µM (inactive) in each case. For the same compound, the Kd in [7], in experiment [8], in experiment [9], in experiment [10] and in [11] was > 30 µM (inactive) each time.

As for `Cn1ncc(Cl)c1-c1cc(C(=O)N[C@H](CN)Cc2cccc(F)c2)sc1Cl` [AFURESERTIB], the Kd in experiment [12], in experiment [3], in [4], in experiment [13], in [5] and in experiment [6] was > 30 µM (inactive) throughout. Also, the Kd in experiment [14], in experiment [7], in [8], in experiment [9], in [10] and in experiment [11] was > 30 µM (inactive) throughout.

`CCn1c(-c2nonc2N)nc2c(C#CC(C)(C)O)ncc(OC[C@H]3CCCNC3)c21` [GSK-690693]: the Kd in experiment [9] and in experiment [10] was > 30 µM (inactive) in each case.

For the compound `CC(=O)Nc1cccc(-n2c(=O)n(C3CC3)c(=O)c3c(Nc4ccc(I)cc4F)n(C)c(=O)c(C)c32)c1` [TRAMETINIB], the Kd in [12], in experiment [1], in experiment [2], in experiment [3], in experiment [4] and in [13] was > 30 µM (inactive) throughout. Further, the Kd in experiment [5], in experiment [6], in experiment [7], in [8], in experiment [9] and in experiment [10] was > 30 µM (inactive) in each case. The Kd in experiment [11] is > 30 µM (inactive).

As to `Cc1cc(Nc2cc(N3CCN(C)CC3)nc(/C=C/c3ccccc3)n2)n[nH]1` [ENMD-2076], the dissociation constant (Kd) in experiment [3] is 1.49 µM (active); in [5], > 30 µM (inactive); in experiment [14], > 30 µM (inactive); in [7], > 30 µM (inactive); in experiment [8], > 30 µM (inactive); in [9] it was > 30 µM (inactive). In addition, the Kd in experiment [10] and in [11] was > 30 µM (inactive) each time.

On to `COC(=O)[C@@]1(O)C[C@H]2O[C@]1(C)n1c3ccccc3c3c4c(c5c6ccccc6n2c5c31)C(=O)NC4` [K-252A], for which the Kd in [12] was > 30 µM (inactive); in experiment [1], > 30 µM (inactive); in experiment [2] it was > 30 µM (inactive); in experiment [3], 0.09 µM (active); in experiment [4], 0.19 µM (active); in experiment [13], 0.911 µM (active). Besides, the Kd is > 30 µM (inactive) in experiment [5]; > 30 µM (inactive) in [6]; > 30 µM (inactive) in [7]; > 30 µM (inactive) in [9]; > 30 µM (inactive) in experiment [10]; 3.3 µM (active) in experiment [11].

In the case of `CNS(=O)(=O)Nc1nccc(Cc2c(C)c3ccc(Oc4ncccn4)cc3oc2=O)c1F` [AVUTOMETINIB], the Kd in experiment [12], in experiment [1], in experiment [2], in experiment [3], in experiment [4] and in experiment [13] was > 30 µM (inactive) throughout. For the same compound, the Kd in experiment [5], in [6], in experiment [7], in experiment [8], in experiment [10] and in experiment [11] was > 30 µM (inactive) in each case.

For `C[C@@H](Nc1cc(F)cc(F)c1)c1cc(C(=O)N(C)C)cc2c(=O)cc(N3CCOCC3)oc12` [AZD-8186], the Kd in [12], in experiment [1], in experiment [3], in [4], in experiment [13] and in experiment [5] was > 30 µM (inactive) each time. The Kd in experiment [6], in [14], in [7], in experiment [8], in experiment [9] and in [10] was > 30 µM (inactive) throughout. For the same compound, the Kd in experiment [11] is > 30 µM (inactive).

For `Nc1nc(N)c2nc(-c3cccc(O)c3)c(-c3cccc(O)c3)nc2n1` [TG100-115], the Kd in experiment [12], in experiment [9] and in experiment [10] was > 30 µM (inactive) each time.

For `CN1CCN(c2ccc3nc(-c4c(N)c5c(F)cccc5[nH]c4=O)[nH]c3c2)CC1` [DOVITINIB], the Kd in experiment [9] and in experiment [10] was > 30 µM (inactive) each time.

With `O=C(Nc1cccc(Cl)c1)Nc1ncc(CCNc2ncnc3ccsc23)s1` [SNS-314], the Kd in experiment [3], in experiment [5], in experiment [8], in [9] and in experiment [10] was > 30 µM (inactive) each time.

For the compound `CCc1cnn2c(NCc3ccc[n+]([O-])c3)cc(N3CCCC[C@H]3CCO)nc12` [DINACICLIB], the Kd in experiment [1], in experiment [2], in experiment [3], in experiment [4], in experiment [5] and in [6] was > 30 µM (inactive) each time. The Kd in experiment [7], in [8], in experiment [9], in experiment [10] and in experiment [11] was > 30 µM (inactive) throughout.

As to `COc1cc2nccc(Oc3ccc(NC(=O)NC4CC4)c(Cl)c3)c2cc1C(N)=O` [LENVATINIB], the Kd in [1], in experiment [2], in [3], in [4], in [13] and in experiment [5] was > 30 µM (inactive) each time. Besides, the Kd in [6], in [14], in experiment [7], in [8], in experiment [9] and in [10] was > 30 µM (inactive) each time. Besides, in [11], the Kd is 3.85 µM (active).

In the case of `C[C@@H](c1ccc2nccn2c1)n1nnc2ncc(-c3cnn(C)c3)nc21` [SAVOLITINIB], the Kd in [12], in experiment [1], in experiment [3], in [4], in experiment [13] and in experiment [5] was > 30 µM (inactive) in each case. In addition, the Kd in experiment [6], in experiment [14], in [7], in experiment [8], in [10] and in [11] was > 30 µM (inactive) throughout.

For the compound `Cc1nc(N)sc1-c1ccnc(Nc2ccc(N3CCOCC3)cc2)n1` [CYC-116], the dissociation constant Kd in [3] was 0.007 µM (active); in experiment [14] it was > 30 µM (inactive); in experiment [7] it was 8.16 µM (active); in [9], > 30 µM (inactive); in [10], > 30 µM (inactive).

For the compound `Cc1cn(-c2cc(NC(=O)c3ccc(C)c(Nc4nccc(-c5cccnc5)n4)c3)cc(C(F)(F)F)c2)cn1` [NILOTINIB], the Kd in [9] and in [10] was > 30 µM (inactive) throughout.
